Values quoted from earlier work in patent US20220212015A1, “SURGICAL SYSTEM AND METHODS OF USE” (priority 2021, published 2022).

Tested on: myofibroblast formation
Details: Ajmal et al. (2003)

O=S(=O)([O-])CCS.[Na+] [MESNA, sodium 2-mercaptoethane sulfonate]
effect on myofibroblast formation: diminish myofibroblast formation
